Source: publication PMC10819071, “SG-ATT: A Sequence Graph Cross-Attention Representation Architecture for Molecular Property Prediction” (Molecules, 2024)
Read-outs that look alike come from different tables or passages of the source.

How the values were obtained:
HBV = experiment: in vitro validation of anti-HBV capacity (IC50); type: cell-based; conditions: Hepatitis B virus, read-out: IC50, In Vitro Validation
Excerpt: (§1) Chronic hepatitis B caused by hepatitis B virus (HBV) is a kind of serious disease. HBV inhibitory drugs are developed from a variety of compounds, and to further explore whether anti-HBV compounds are potentially promising for research, it is necessary to validate their anti-HBV capacity (IC50) and HepG2 hepatocytotoxicity (CC50). We used compounds screened with the fields of target name and target tissue from the CHEMBL database as training data and set the HBV (IC50) concentration and hepatotoxicity concentration (CC50) thresholds at 20 μM (the smaller the IC50 value; the more […]) and 100 μM (higher CC50 concentration indicates lower toxicity), respectively, to convert the compound activity data against the target into binary data for prediction. To validate the reliability of the SG-ATT model, we also used in vitro validation to test the model on IC50 and CC50 to predict the properties of the compounds. Throughout the in vitro validation, we tested the activity data of 100 compounds for IC50 and CC50.
(§2) We counted the model prediction results and listed the top 10 compounds ranked using μM prediction size. The first represents the largest μM, and the 10th represents the smallest μM.

[1] = in vitro validation of HepG2 hepatocytotoxicity (CC50); type: cell-based; conditions: human, top 10 compounds ranked by SG-ATT prediction, classification threshold 100 μM
Excerpt: as §1, §2

[2] = anti-HBV capacity, top 10 compounds ranked by SG-ATT prediction, classification threshold 20 μM

O=C(N[C@H](CO)Cc1ccccc1)/C(NC(=O)c1ccccc1)=C(/Br)c1ccc(Br)cc1 [Br/C(C1=CC=C(Br)C=C1)=C(NC(C2=CC=CC=C2)=O)/ C(N[C@@H](CC3=CC=CC=C3)CO)=O]
IC50 (HBV): 4.45 µM

N#Cc1ccc(/C(Br)=C(/NC(=O)c2ccccc2)C(=O)N[C@H](CO)Cc2ccccc2)cc1 [Br/C(C1=CC=C(C#N)C=C1)=C(NC(C2=CC=CC=C2)=O)/ C(N[C@@H](CC3=CC=CC=C3)CO)=O]
CC50 [1]: > 100 µM

O=C(N[C@H](CO)Cc1ccccc1)/C(NC(=O)c1ccccc1)=C(/Br)c1ccc(O)cc1 [Br/C(C1=CC=C(O)C=C1)=C(NC(C2=CC=CC=C2)=O)/ C(N[C@H](CO)CC3=CC=CC=C3)=O]
CC50 [1]: > 100 µM

O=C(N[C@H](CO)Cc1ccccc1)/C(NC(=O)c1ccccc1)=C(/Br)c1ccccc1 [Br/C(C1=CC=CC=C1)=C(NC(C2=CC=CC=C2)=O)/ C(N[C@H](CO)CC3=CC=CC=C3)=O]
IC50 (HBV): 3.86 µM

O=C(N[C@H](CO)Cc1ccccc1)/C(NC(=O)c1ccccc1)=C(/Br)c1ccccc1Br [Br/C(C1=CC=CC=C1Br)=C(NC(C2=CC=CC=C2)=O)/ C(N[C@@H](CC3=CC=CC=C3)CO)=O]
CC50 [1]: > 100 µM

O=C(N[C@H](CO)Cc1ccccc1)/C(NC(=O)c1ccccc1)=C(/Br)c1ccccc1Cl [Br/C(C1=CC=CC=C1Cl)=C(NC(C2=CC=CC=C2)=O)/ C(N[C@@H](CC3=CC=CC=C3)CO)=O]
IC50 (HBV): 1.88 µM

COc1ccccc1/C(Br)=C(/NC(=O)c1ccc([N+](=O)[O-])cc1)C(=O)N[C@@H](CO)C(C)C [Br/C(C1=CC=CC=C1OC)=C(NC(C2=CC=C([N+]([O-]) =O)C=C2)=O)/C(N[C@@H](CO)C(C)C)=O]
IC50 (HBV; [2]): 2.06 µM

CCN(CC)CCOc1ccc2nc(SCc3ccccc3OC)n(Cc3cccs3)c(=O)c2c1 [O=C1C2=CC(OCCN(CC)CC)=CC=C2N=C (SCC3=C(OC)C=CC=C3)N1CC4=CC=CS4]
IC50 (HBV; [2]): 1.93 µM

O=C(N[C@@H](Cc1ccccc1)C(=O)N1CCCCC1)c1ccccc1 [O=C(N1CCCCC1)[C@@H](NC(C2=CC=CC=C2) =O)CC3=CC=CC=C3]
IC50 (HBV; [2]): > 20 µM

O=C(N/C(C(=O)N1CCCCC1)=C(\Br)c1nccs1)c1ccc(F)cc1 [O=C(N/C(C(N1CCCCC1)=O)=C(Br)/C2=NC=CS2) C(C=C3)=CC=C3F]
CC50 ([1]; HepG2 cells): > 100 µM

CC(C)C(CO)NC(=O)[C@H](Cc1ccc(OCCN(C)C)cc1)NC(=O)c1ccccc1 (some centres unmarked) [O=C(NC(CO)C(C)C)[C@@H](NC(C1=CC=CC=C1)=O)CC2=CC=C(OCCN(C)C)C=C2]
CC50 ([1]; HepG2 cells): 89.1 µM

COc1ccccc1/C(Br)=C(/NC(=O)c1ccc([N+](=O)[O-])cc1)C(=O)N[C@@H](CO)CC(C)C [O=C(N[C@H](CC(C)C)CO)/C(NC(C1=CC=C([N+]([O-])=O) C=C1)=O)=C(Br)\C2=CC=CC=C2OC]
CC50 [1]: 86.6 µM

O=C(N[C@H](CO)Cc1ccccc1)/C(=C\c1ccc(Br)cc1)NC(=O)c1ccccc1 [O=C(N[C@H](CO)CC1=CC=CC=C1)/C (NC(C2=CC=CC=C2)=O)=C\C3=CC=C(Br)C=C3]
CC50 [1]: 72.7 µM

O=C(N[C@H](CO)Cc1ccccc1)/C(=C\c1ccccc1)NC(=O)c1ccccc1F [O=C(N[C@H](CO)CC1=CC=CC=C1)/C(NC(C2=C(F) C=CC=C2)=O)=C\C3=CC=CC=C3]
IC50 (HBV; [2]): > 20 µM
CC50 [1]: > 100 µM

Cc1cccc(/C=C(/NC(=O)c2ccccc2)C(=O)N[C@H](CO)Cc2ccccc2)c1 [O=C(N[C@H](CO)CC1=CC=CC=C1)/C(NC(C2=CC=CC=C2) =O)=C\C3=CC=CC(C)=C3]
IC50 (HBV): > 20 µM
CC50 [1]: > 100 µM

O=C(N[C@H](CO)Cc1ccccc1)/C(=C\c1ccccc1Br)NC(=O)c1ccccc1 [O=C(N[C@H](CO)CC1=CC=CC=C1)/C(NC(C2=CC=CC=C2)=O) =C\C3=CC=CC=C3Br]
IC50 (HBV): > 20 µM

O=C(N[C@H](CO)Cc1ccccc1)/C(=C\c1ccccc1Cl)NC(=O)c1ccccc1 [O=C(N[C@H](CO)CC1=CC=CC=C1)/C(NC(C2=CC=CC=C2)=O) =C\C3=CC=CC=C3Cl]
IC50 (HBV): > 20 µM
CC50 [1]: > 100 µM
